Legend:
[1] = tested on: human platelet rich plasma; test: Inhibition of human platelet aggregation, 96-well assay; type: cell-based; conditions: Homo sapiens, Platelet, 20 min
Outline: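 ADP-induced aggregation read as 650 nm absorbance every minute for 20 min at 37 °C, with shaking between reads. PRP (~3×E8 platelets/ml, diluted with PPP, ACD-A blood from healthy volunteers) was exposed to compound for 5 min before adding a 40 μM ADP stock (15 μl into 150 μl).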

human P2Y12 receptor = human P2Y12 receptor (Homo sapiens, UniProt Q9H244); test: Human P2Y12 recombinant cell membrane binding assay with 33P 2MeS-ADP; conditions: competition against 33P 2MeS-ADP, membranes of CHO cells with recombinant human P2Y12 receptor
Sequence of human P2Y12 receptor (Q9H244 whole entry): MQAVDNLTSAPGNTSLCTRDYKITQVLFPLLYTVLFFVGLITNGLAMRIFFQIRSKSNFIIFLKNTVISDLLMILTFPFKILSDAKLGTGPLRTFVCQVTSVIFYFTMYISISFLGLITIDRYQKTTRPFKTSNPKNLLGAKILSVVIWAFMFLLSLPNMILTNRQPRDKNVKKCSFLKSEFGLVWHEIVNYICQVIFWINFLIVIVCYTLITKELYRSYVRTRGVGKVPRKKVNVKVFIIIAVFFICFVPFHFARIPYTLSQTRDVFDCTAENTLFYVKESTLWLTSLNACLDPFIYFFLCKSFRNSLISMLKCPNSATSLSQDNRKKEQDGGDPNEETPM
Outline: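 CHO membranes expressing human P2Y12 (20 μg/ml stock) preincubated 15 min at RT with compound in HEPES pH 7.4 buffer, then 33P 2MeS-ADP (1.61 nM working solution) added for 20 min at RT. Bound label filtered and counted; four-point, five-fold series from 10 μM final, triplicate, four-parameter fit.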

[2] = tested on: human platelet rich plasma; test: Inhibition of human platelet aggregation, "Born"-method using single cuvettes; type: cell-based; conditions: 0.1 h, ADP-induced aggregation, 6 minutes
Description: Inhibition of Human Platelet Aggregation
Alternatively to a binding assay which measures a compound's ability to bind to the P2Y12 receptor, the effect on cellular function was also determined. This ability of the compound was evaluated in two platelet aggregation assays: in 96-well plates and with the “Born”-method using single cuvettes.
Whole blood was collected from healthy volunteers using 20 ml syringes containing 2 ml of buffered Citrate. The anticoagulated whole blood was transferred into 15 ml polypropylene conical tubes (10 ml per tube). The tubes were centrifuged for 15 minutes at 340×g at RT without using the centrifuge brake. This procedure leads to a pellet of cellular components and a supernatant of platelet rich plasma (PRP). The PRP layer was collected from each tube and pooled for each donor. To avoid carry over of cellular components following centrifugation, approximately 5 ml of PRP was left in the tube. The platelet concentration was determined using a Coulter Counter.
The 15 ml tubes containing the pellet of cellular components were centrifuged again for 10 minutes at 1940×g. This pelleted out most particulate blood constituents remaining, leaving a layer of Platelet Poor Plasma (PPP). The PPP was collected for each donor. The PRP layer, previously set aside, was diluted with PPP to a final concentration of approximately 3×E8 platelets/ml with the PPP.
The human platelet aggregation assay is performed in single use cuvettes using the platelet aggregation profiler (PAP-4 or -8, Bio/Data corporation).
In the assay cuvette 4 μl of test compound at 100× final concentration in DMSO is mixed with 392 μl fresh PRP and incubated for 2 minutes at 37° C. with 1.200 rpm stirring. Following that incubation period, 4 μl of 250 μM ADP is added to the reaction mix. This addition of ADP is sufficient to induce aggregation in the absence of an inhibitor. After that aggregation is measured over 6 minutes at 37° C. with 1.200 rpm stirring. Results of the assay are expressed as % inhibition, and are calculated using maximum aggregation (Tmax) or area under curve (AUC) of the absorbance over 6 minutes.
The IC50 data of the above described platelet aggregation assay using human platelet rich plasma for exemplary compounds of the present invention are shown in table 3.

IC50 [1]	IC50 (human P2Y12 receptor)	IC50 [2]	Structure (SMILES)
0.03 µM	0.129 µM	0.039 µM	CCOC(=O)N1CCN(C(=O)[C@H](CCC(=O)O)NC(=O)c2cc(OC(C)C(=O)N3CCC[C@H]3C(=O)NCC(F)(F)F)n(-c3ccccc3)n2)CC1 (stereo partly drawn) [Example 53, 4-{(S)-4-Carboxy-2-[(5-{1-methyl-2-oxo-2-[(S)-2-(2,2,2-trifluoro-ethylcarbamoyl)-pyrrolidin-1-yl]-ethoxy}-1-phenyl-1H-pyrazole-3-carbonyl)-amino]-butyryl}-piperazine-1-carboxylic acid ethyl ester]
0.02 µM	0.07 µM	0.06 µM	CCOC(=O)N1CCN(C(=O)[C@H](CC(=O)O)NC(=O)c2cc(OCC(=O)N3CCC[C@H]3C(=O)NCC3CC3)n(-c3ccccc3)n2)CC1 [Example 55, 4-{(S)-3-Carboxy-2-[(5-{2-[(S)-2-(cyclopropylmethyl-carbamoyl)-pyrrolidin-1-yl]-2-oxo-ethoxy}-1-phenyl-1H-pyrazole-3-carbonyl)-amino]-propionyl}-piperazine-1-carboxylic acid ethyl ester]
0.05 µM	0.093 µM	0.18 µM	CCOC(=O)N1CCN(C(=O)[C@H](CCC(=O)O)NC(=O)c2cc(O[C@H](C)C(=O)N3CCC[C@H]3C(=O)NC3CC3)n(-c3ccccc3)n2)CC1 [Example 61, 4-[(S)-4-Carboxy-2-({5-[(R)-2-((S)-2-cyclopropylcarbamoyl-pyrrolidin-1-yl)-1-methyl-2-oxo-ethoxy]-1-phenyl-1H-pyrazole-3-carbonyl}-amino)-butyryl]-piperazine-1-carboxylic acid ethyl ester]
0.13 µM	0.017 µM	0.058 µM	CCOC(=O)N1CCN(C(=O)[C@H](CCC(=O)O)NC(=O)c2cc(O[C@H](C)C(=O)N3CCC[C@H]3C(=O)NC3CCC3)n(-c3ccccc3)n2)CC1 [Example 62, 4-[(S)-4-Carboxy-2-({5-[(R)-2-((S)-2-cyclobutylcarbamoyl-pyrrolidin-1-yl)-1-methyl-2-oxo-ethoxy]-1-phenyl-1H-pyrazole-3-carbonyl}-amino)-butyryl]-piperazine-1-carboxylic acid ethyl ester]
0.01 µM	0.055 µM	0.21 µM	CCOC(=O)N1CCN(C(=O)[C@H](CCC(=O)O)NC(=O)c2cc(OCC(=O)N3CCC[C@H]3C(=O)NC3CCC3)n(-c3cccc(F)c3)n2)CC1 [Example 73, 4-((S)-4-Carboxy-2-{[5-[2-((S)-2-cyclobutylcarbamoyl-pyrrolidin-1-yl)-2-oxo-ethoxy]-1-(3-fluoro-phenyl)-1H-pyrazole-3-carbonyl]-amino}-butyryl)-piperazine-1-carboxylic acid ethyl ester]
0.56 µM	0.127 µM	0.12 µM	O=C(O)CC[C@H](NC(=O)c1cc(OCC(=O)N2CCC[C@H]2C(=O)NC2CCC2)n(-c2ccccc2)n1)C(=O)N1CCC(C(=O)c2cccc(Cl)c2)CC1 [Example 103, (S)-5-[4-(3-Chloro-benzoyl)-piperidin-1-yl]-4-({5-[2-((S)-2-cyclobutylcarbamoyl-pyrrolidin-1-yl)-2-oxo-ethoxy]-1-phenyl-1H-pyrazole-3-carbonyl}-amino)-5-oxo-pentanoic acid]
0.21 µM	0.059 µM	0.12 µM	CCOC(=O)N1CCN(C(=O)[C@H](CCO)NC(=O)c2cc(OCC(=O)N3CCC[C@H]3C(=O)NC3CCC3)n(-c3ccccc3)n2)CC1 [Example 115, 4-[(S)-2-({5-[2-((S)-2-Cyclobutylcarbamoyl-pyrrolidin-1-yl)-2-oxo-ethoxy]-1-phenyl-1H-pyrazole-3-carbonyl}-amino)-4-hydroxy-butyryl]-piperazine-1-carboxylic acid ethyl ester]
0.02 µM	0.009 µM	0.025 µM	CCCCOC(=O)N1CCN(C(=O)[C@H](CCC(=O)O)NC(=O)c2cc(OCC(=O)N3CCC[C@H]3C(=O)NC3CC3)n(-c3ccccc3)n2)CC1 [Example 118, 4-[(S)-4-Carboxy-2-({5-[2-((S)-2-cyclopropylcarbamoyl-pyrrolidin-1-yl)-2-oxo-ethoxy]-1-phenyl-1H-pyrazole-3-carbonyl}-amino)-butyryl]-piperazine-1-carboxylic acid butyl ester]
0.01 µM	0.003 µM	0.021 µM	CCCCOC(=O)N1CCN(C(=O)[C@H](CCC(=O)O)NC(=O)c2cc(OCC(=O)N3CCC[C@H]3C(=O)NCC3CC3)n(-c3ccccc3)n2)CC1 [Example 120, 4-[(S)-4-Carboxy-2-({5-[2-((S)-2-cyclopropylmethylcarbamoyl-pyrrolidin-1-yl)-2-oxo-ethoxy]-1-phenyl-1H-pyrazole-3-carbonyl}-amino)-butyryl]-piperazine-1-carboxylic acid butyl ester]
0.03 µM	0.01 µM	0.0058 µM	CCCCOC(=O)N1CCN(C(=O)[C@H](CCC(=O)O)NC(=O)c2cc(OCC(=O)N3CCC[C@H]3C(=O)NCC(F)F)n(-c3ccccc3)n2)CC1 [Example 121, 4-{(S)-4-Carboxy-2-[(5-{2-[(S)-2-(2,2-difluoro-ethylcarbamoyl)-pyrrolidin-1-yl]-2-oxo-ethoxy}-1-phenyl-1H-pyrazole-3-carbonyl)-amino]-butyryl}-piperazine-1-carboxylic acid butyl ester]
0.04 µM	0.012 µM	0.081 µM	CCCCOC(=O)N1CCN(C(=O)[C@H](CCC(=O)O)NC(=O)c2cc(OCC(=O)N3CCC[C@H]3C(=O)NCCF)n(-c3ccccc3)n2)CC1 [Example 122, 4-{(S)-4-Carboxy-2-[(5-{2-[(S)-2-(2-fluoro-ethylcarbamoyl)-pyrrolidin-1-yl]-2-oxo-ethoxy}-1-phenyl-1H-pyrazole-3-carbonyl)-amino]-butyryl}-piperazine-1-carboxylic acid butyl ester]
0.03 µM	0.005 µM	0.0026 µM	CCCCOC(=O)N1CCN(C(=O)[C@H](CCC(=O)O)NC(=O)c2cc(OCC(=O)N3CCC[C@H]3C(=O)NCC(F)(F)F)n(-c3ccccc3)n2)CC1 [Example 123, 4-{(S)-4-Carboxy-2-[(5-{2-[(S)-2-(2,2,2-trifluoro-ethylcarbamoyl)-pyrrolidin-1-yl]-2-oxo-ethoxy}-1-phenyl-1H-pyrazole-3-carbonyl)-amino]-butyryl}-piperazine-1-carboxylic acid butyl ester]
0.09 µM	0.005 µM	0.15 µM	CCCCOC(=O)N1CCN(C(=O)[C@H](CCC(=O)OCC)NC(=O)c2cc(OCC(=O)N3CCC[C@H]3C(=O)NC3CCC3)n(-c3ccccc3)n2)CC1 [Example 143, 4-[(S)-2-({5-[2-((S)-2-Cyclobutylcarbamoyl-pyrrolidin-1-yl)-2-oxo-ethoxy]-1-phenyl-1H-pyrazole-3-carbonyl}-amino)-4-ethoxycarbonyl-butyryl]-piperazine-1-carboxylic acid butyl ester]
0.02 µM	0.008 µM	0.033 µM	CCCOC(=O)N1CCN(C(=O)[C@H](CCC(=O)O)NC(=O)c2cc(OCC(=O)N3CCC[C@H]3C(=O)NC3CCC3)n(-c3ccccc3)n2)CC1 [Example 162, 4-[(S)-4-Carboxy-2-({5-[2-((S)-2-cyclobutylcarbamoyl-pyrrolidin-1-yl)-2-oxo-ethoxy]-1-phenyl-1H-pyrazole-3-carbonyl}-amino)-butyryl]-piperazine-1-carboxylic acid propyl ester]
0.38 µM	0.146 µM	0.53 µM	CCOC(=O)N1CCN(C(=O)[C@H](CCC(=O)O)NC(=O)c2cc(OCC(=O)N3CCC[C@H]3c3nc(C)c[nH]3)n(-c3ccccc3)n2)CC1 [Example 172, 4-{(S)-4-Carboxy-2-[(5-{2-[(S)-2-(4-methyl-1H-imidazol-2-yl)-pyrrolidin-1-yl]-2-oxo-ethoxy}-1-phenyl-1H-pyrazole-3-carbonyl)-amino]-butyryl}-piperazine-1-carboxylic acid ethyl ester]
0.03 µM	0.02 µM	0.046 µM	CCCCOC(=O)N1CCN(C(=O)CNC(=O)c2cc(OCC(=O)N3CCC[C@H]3C(=O)NC3CCC3)n(-c3ccccc3)n2)CC1 [Example 182, 4-[2-({5-[2-((S)-2-Cyclobutylcarbamoyl-pyrrolidin-1-yl)-2-oxo-ethoxy]-1-phenyl-1H-pyrazole-3-carbonyl}-amino)-acetyl]-piperazine-1-carboxylic acid butyl ester]

— US8426420B2, “Heterocyclic pyrazole-carboxamidesas P2Y12 antagonists” (Sanofi, priority 2007, dated 2013)
